Results reported in patent EP1757588A1, “Polymorph of N-Piperidinyl-5-(4-chlorophenyl)-1-(2,4-dichlorophenyl)-4,5-dihydro-1H-pyrazole-3-carboxamide and its use as a cannabinoid receptor modulator” (LABORATORIOS DEL DR. ESTEVE, S.A., priority 2005, dated 2007).

Key:
Male NMRI mice = experiment: Mouse tetrad model (in-vivo bioassay for cannabinoid activity: hot plate, hypothermia, catalepsy, sedation); details: 5 mg/kg i.v.
Description: II. In-vivo bioassay system for determination of cannabinoid activity
Substances with affinity for cannabinoid receptors are known to produce a wide range of pharmacological effects. It is also known that intravenous administration of a substance with affinity for cannabinoid receptors in mice produces analgesia , hypothermia, sedation and catalepsy. Individually, none of these effects can be considered as proof that a tested substance has affinity for cannabinoid-receptors, since all of these effects are common for various classes of centrally active agents. However, substances, which show all of these effects, i.e. substances that are active in this so-called tetrad model are considered to have affinity for the cannabinoid receptors. It has further been shown that cannabinoid receptor antagonists are higly effective in blocking the effects of a cannabinoid agonist in the mouse tetrad model.
The tetrad model is described, for example, in the publication of A. C. Howlett et al, International Union of Pharmacology XXVII. Classification of Cannabinoid Receptors, Pharmacol Rev 54, 161-202 , 2002 and David R. Compton et al., "In-vivo Characterization of a Specific Cannabinoid Receptor Antagonist (SR141716A) :Inhibition of Tetrahydrocannbinol- induced Responses and Apparent Agonist Activity", J. Pharmacol. Exp. Ther. 277 , 2, 586-594, 1996. […]
Before testing in the behavioral procedures given below, mice are acclimatized to the experimental setting. Pre-Treatment control values are determined for analgesia hot plate latency (in seconds), rectal temperature, sedation and catalepsy.
In order to determine the agonistic activty of the substance to be tested, the mice are injected intravenously with the substance to be tested or the vehicle alone. 15 minutes after injection, latency in hot plate analgesia is measured.
Rectal temperature, sedation and catalepsy are measured 20 minutes after injection.
In order to determine the antagonistic activity the identical procedure is used as for the determination of the agonistic effects, but with the difference that the substance to be evaluated for its antagonistic activity is injectected 5 minutes before the intravenous injection of 1.25 mg/kg Win-55,212 a known cannabinoid-receptor agonist.
The hot plate analgesia is determined according to the method described in Woolfe D. et al. "The evaluation of analgesic action of pethidine hydrochloride (Demerol)", J. Pharmacol. Exp. Ther. 80, 300-307,1944.
The mice are placed on a hot plate (Harvard Analgesimeter) at 55 ± 0.5 °C until they show a painful sensation by licking their paws or jumping and the time for these sensations to occur is recorded. This reading is considered the basal value (B). […]
The degree of analgesia is calculated from the formula : […]

Herg channel = Herg channel (Homo sapiens, UniProt Q12809); experiment: Herg channel affinity; type: binding; details: general statement, no method or data given
Herg channel, sequence (Q12809 whole entry): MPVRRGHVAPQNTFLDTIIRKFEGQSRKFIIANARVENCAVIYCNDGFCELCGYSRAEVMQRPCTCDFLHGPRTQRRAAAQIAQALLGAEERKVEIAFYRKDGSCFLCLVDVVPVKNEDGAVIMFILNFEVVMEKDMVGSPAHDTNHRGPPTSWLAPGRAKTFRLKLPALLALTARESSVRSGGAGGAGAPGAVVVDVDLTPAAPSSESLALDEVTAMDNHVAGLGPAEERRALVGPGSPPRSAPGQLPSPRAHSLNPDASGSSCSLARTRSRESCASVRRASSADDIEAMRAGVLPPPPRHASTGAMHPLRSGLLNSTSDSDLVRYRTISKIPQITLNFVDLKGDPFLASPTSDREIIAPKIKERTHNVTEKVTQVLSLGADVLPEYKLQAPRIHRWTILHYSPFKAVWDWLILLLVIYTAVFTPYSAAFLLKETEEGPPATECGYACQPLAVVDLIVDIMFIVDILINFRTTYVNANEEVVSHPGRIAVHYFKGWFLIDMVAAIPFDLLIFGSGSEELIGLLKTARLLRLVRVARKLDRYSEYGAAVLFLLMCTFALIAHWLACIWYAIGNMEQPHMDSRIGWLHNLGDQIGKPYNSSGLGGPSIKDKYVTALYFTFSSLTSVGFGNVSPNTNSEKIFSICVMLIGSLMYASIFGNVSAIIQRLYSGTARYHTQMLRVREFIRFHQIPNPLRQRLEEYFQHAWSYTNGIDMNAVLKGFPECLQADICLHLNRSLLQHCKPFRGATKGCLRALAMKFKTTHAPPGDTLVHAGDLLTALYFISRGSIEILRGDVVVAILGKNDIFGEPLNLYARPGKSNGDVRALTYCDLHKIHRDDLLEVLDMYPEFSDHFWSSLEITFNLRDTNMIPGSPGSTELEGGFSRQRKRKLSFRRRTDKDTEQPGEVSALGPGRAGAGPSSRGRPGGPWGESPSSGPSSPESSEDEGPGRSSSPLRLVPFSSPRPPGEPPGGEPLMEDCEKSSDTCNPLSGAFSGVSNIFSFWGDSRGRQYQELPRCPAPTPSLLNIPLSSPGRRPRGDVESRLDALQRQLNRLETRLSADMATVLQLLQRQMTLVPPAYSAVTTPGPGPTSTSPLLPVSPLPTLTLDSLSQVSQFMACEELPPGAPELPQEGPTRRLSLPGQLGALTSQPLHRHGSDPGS

Structure (SMILES) | Agonistic effect A: Hot-Plate test (Male NMRI mice) | Agonistic effect B: Hypothermia (Male NMRI mice) | Agonistic effect C: Catalepsy (Male NMRI mice) | Agonistic effect D: Sedation (Male NMRI mice) | Herg channel affinity (Herg channel)
O=C(NN1CCCCC1)C1=NN(c2ccc(Cl)cc2Cl)C(c2ccc(Cl)cc2)C1 (centres unmarked) [Example 1, N-piperidinyl-5-(4-chlorophenyl)-1-(2,4-dichlorophenyl)-4,5-dihydro-1H-pyrazole-3-carboxamide] | 0 | 0 | 0 | 0 | 
O=C(NN1CCCCC1)C1=NN(c2ccc(Cl)cc2Cl)C(c2ccc(Cl)cc2)C1 (stereo not drawn) [β-Polymorph, β-Polymorph of N-piperidinyl-5-(4-chlorophenyl)-1-(2,4-dichlorophenyl)-4,5-dihydro-1H-pyrazole-3-carboxamide] |  |  |  |  | relatively weak
